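Cells were grown in 96-well plates and exposed to each compound for 48 hours at five concentrations; endpoints were interpolated linearly between bracketing concentrations, or set to the highest concentration if not reached. TGI: total growth inhibition.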
Assays:
Assay in all cases: growth of human tumour cells (NCI), 48 h
SW-620 colon = tested on: SW-620 colon
NCI-H460 lung = tested on: NCI-H460 lung
SNB-75 CNS = tested on: SNB-75 CNS
HCT-15 colon = tested on: HCT-15 colon
UACC-257 melanoma = tested on: UACC-257 melanoma
A549 NSCLC = tested on: A549 NSCLC
NCI-H522 lung = tested on: NCI-H522 lung
M14 melanoma = tested on: M14 melanoma
CCRF-CEM leukemia = tested on: CCRF-CEM leukemia
HCT-116 colon = tested on: HCT-116 colon
UACC-62 melanoma = tested on: UACC-62 melanoma
SK-MEL-28 melanoma = tested on: SK-MEL-28 melanoma
HL-60(TB) leukemia = tested on: HL-60(TB) leukemia
OVCAR-3 ovarian = tested on: OVCAR-3 ovarian
BT-549 breast = tested on: BT-549 breast
SF-295 CNS = tested on: SF-295 CNS
MALME-3M melanoma = tested on: MALME-3M melanoma
RPMI-8226 leukemia = tested on: RPMI-8226 leukemia
K-562 leukemia = tested on: K-562 leukemia
RXF 393 renal = tested on: RXF 393 renal

| Structure (SMILES) | TGI (SW-620 colon) [µM] | TGI (NCI-H460 lung) [µM] | TGI (SNB-75 CNS) [µM] | TGI (HCT-15 colon) [µM] | TGI (UACC-257 melanoma) [µM] | TGI (A549 NSCLC) [µM] | TGI (NCI-H522 lung) [µM] | TGI (M14 melanoma) [µM] | TGI (CCRF-CEM leukemia) [µM] | TGI (HCT-116 colon) [µM] | TGI (UACC-62 melanoma) [µM] | TGI (SK-MEL-28 melanoma) [µM] | TGI (HL-60(TB) leukemia) [µM] | TGI (OVCAR-3 ovarian) [µM] | TGI (BT-549 breast) [µM] | TGI (SF-295 CNS) [µM] | TGI (MALME-3M melanoma) [µM] | TGI (RPMI-8226 leukemia) [µM] | TGI (K-562 leukemia) [µM] | TGI (RXF 393 renal) [µM] |
| --- | --- | --- | --- | --- | --- | --- | --- | --- | --- | --- | --- | --- | --- | --- | --- | --- | --- | --- | --- | --- |
| C=CCOc1ccc(/C(N=Nc2ccc(C)cc2)=N/NC(=O)c2ccccc2)cc1OC | > 100 | 48 | 65.6 | > 100 | 49.1 | 64.9 | 49.6 | 58.3 | 41.1 | 82.6 | 31.6 | 51.3 | 29 | > 100 | 47.1 | > 100 | 76.9 | – | – | – |
| COc1ccc(N=Nc2c(C)c(C#N)c(=S)n(C3OC(COC(C)=O)C(OC(C)=O)C(OC(C)=O)C3OC(C)=O)c2C)cc1 (centres undefined) | > 100 | > 100 | 42.6 | – | > 100 | > 100 | – | > 100 | > 100 | > 100 | > 100 | > 100 | > 100 | > 100 | > 100 | > 100 | > 100 | > 100 | > 100 | > 100 |
| Cc1cc(S(=O)(=O)NC(=C(C#N)C#N)[n+]2ccc(N(C)C)cc2)c([S-])cc1Cl | – | > 100 | – | > 100 | > 100 | > 100 | > 100 | > 100 | > 100 | > 100 | > 100 | > 100 | > 100 | > 100 | > 100 | > 100 | > 100 | > 100 | > 100 | > 100 |
| COc1ccc2c(c1)CCN=C2Cc1ccccc1CCCl | > 100 | 38.8 | > 100 | > 100 | 88.9 | > 100 | 58.4 | 46.1 | > 100 | > 100 | 52.7 | > 100 | 48.6 | > 100 | > 100 | > 100 | – | 46.7 | > 100 | 71.7 |
| c1ccc(N=C(N2CCOCC2)N(CCN2CCOCC2)c2ccccc2)cc1 | > 100 | > 100 | > 100 | > 100 | > 100 | > 100 | > 100 | > 100 | > 100 | > 100 | > 100 | > 100 | – | > 100 | > 100 | > 100 | > 100 | > 100 | > 100 | > 100 |
| CC(C)(C)OC(=O)[C@@H]1CCC(=S)N1Cc1ccccc1 | > 100 | > 100 | > 100 | > 100 | > 100 | > 100 | > 100 | > 100 | > 100 | > 100 | > 100 | > 100 | – | > 100 | > 100 | > 100 | > 100 | > 100 | > 100 | > 100 |
| COc1cc(C2SCC(=O)N2Cc2ccccc2)cc(OC)c1OC (centres undefined) | > 100 | > 100 | – | > 100 | > 100 | > 100 | > 100 | > 100 | > 100 | > 100 | > 100 | > 100 | > 100 | > 100 | > 100 | > 100 | – | > 100 | > 100 | – |
| Cc1n[n+](CC(=O)c2ccccc2)c2sc(N)nn12 | > 100 | > 100 | > 100 | > 100 | > 100 | > 100 | > 100 | > 100 | > 100 | > 100 | > 100 | > 100 | – | > 100 | > 100 | > 100 | > 100 | > 100 | > 100 | > 100 |
| C=CC(CBr)CCC(Br)C(C)(C)Br (centres undefined) | > 10 | > 10 | > 10 | > 10 | > 10 | > 10 | > 10 | > 10 | > 10 | > 10 | – | > 10 | – | > 10 | > 10 | > 10 | > 10 | > 10 | > 10 | > 10 |
| O=C1c2sc(-c3ccc(F)cc3)cc2-n2cccc21 | > 100 | > 100 | 43.7 | > 100 | > 100 | > 100 | > 100 | > 100 | > 100 | 58.7 | > 100 | > 100 | – | > 100 | > 100 | 93.9 | > 100 | > 100 | 74.2 | 73.1 |
| CC(=O)OCc1ccc2oc(=O)c(C(=O)Oc3cccc(Cl)c3)cc2c1 | > 100 | > 100 | > 100 | > 100 | > 100 | > 100 | > 100 | > 100 | > 100 | 54.5 | 34.2 | > 100 | – | > 100 | > 100 | > 100 | > 100 | > 100 | 79.8 | > 100 |
| Cc1ccc2c3c(cnc2n1)C(=O)OCCN3C | > 100 | > 100 | – | > 100 | > 100 | > 100 | > 100 | > 100 | > 100 | > 100 | > 100 | > 100 | > 100 | > 100 | > 100 | > 100 | – | – | > 100 | > 100 |
